The values that follow come from patent US7608716B2, “Pyrazolonaphthyridine derivative” (Aska Pharmaceutical Co., Ltd., priority 2002, dated 2009).

In data set [1] the test system is actively sensitized guinea pigs. Description: Inhibition of antigen-induced immediate asthmatic response (airway resistance, Konzett-Rossler). The format is in vivo, Hartley guinea pigs. The note with it: Cavia porcellus, oral, 60 minutes prior to antigen-challenge, reduction of increase in airway resistance, read-out: Inhibition of Asthmatic response ED50: mg/kg orally. As to the method:
Male Hartley outbred guinea pigs were sensitized by administering intraperitoneally physiological saline (0.5 ml) containing ovalbumin (1 mg, antigen) and 5×10^9 inactivated Bordetella pertussis dead cells (adjuvant). Eleven to thirteen days after the first sensitization, 0.05 ml of an ovalbumin solution (1 mg/ml) (ovalbumin is dissolved in physiological saline) was administered to the lateroabdominal region of each guinea pig intracutaneously. An establishment of sensitization was checked relying on cutaneous reaction. Only guinea pigs wherein significant reddening responses occurred 5 to 10 minutes later were employed in the next measurement test for airway resistance.
The guinea pigs (3 animals per group) actively sensitized in the above step (1) were employed to measure for their airway pressure according to Konzett-Rossler method (Arch. Exp. Path. Pharmakol., 195, 71 (1940)).
Thirteen days after the final sensitization, guinea pigs fasted overnight, and were on the next day anesthetized with a pentobarbital solution (30 mg/1.2 ml/kg, dissolved in physiological saline, intraperitoneal administration). After the guinea pigs were fixed in a supine position, their trachea was incised followed by insertion with one port of a 4-port cannula. Among the remaining 3 ports, 2 ports were connected to an artificial respirator (Model 683, Harvard). The animals were ventilated with 10 ml/kg of air per ventilation at a rate of 60 beats/min via the artificial respirator from the cannula. One port remainder was connected to a respiratory amplifier (AR-601G, Nihon Kohden, Japan) via an airflow resistance tube (TV-241T, Nihon Kohden, Japan) and a differential pressure transducer (TP-602T, Nihon Kohden, Japan) connected with a control box (RY-111S, Nihon Kohden, Japan). From a catheter inserted into a left carotid artery, blood pressures were monitored with a blood pressure measurement unit (AP641G, NEC Corp., Japan) via a blood pressure transducer (TP-300T, Nihon Kohden, Japan), and heart rates were recorded on a thermal recorder (WT-685G, Nihon Kohden, Japan), relying on blood pressure pulse waves after being led to a cardiograph unit (AT601G, Nihon Kohden, Japan).
After airway pressure became stable, an ovalbumin solution (1 mg/ml, dissolved in physiological saline) was administered at a dose of 1 ml/kg via a tube with which the right jugular vein of guinea pigs was cannulated.
Each test compound was suspended in 0.5% CMC-Na solution and administered orally with an oral sound at a dose of 0.03 to 20 mg/2 ml/kg 60 minutes prior to the antigen-challenge. Control groups received only 0.5% CMC-Na solution in an equivalent amount. The pentobarbital-anesthetization and tracheal incision were conducted 30 minutes prior to the antigen-challenge.
Each percent reduction of increase in airway resistance (each test compound-administered group versus control group) was calculated according to the equation given below. ED50 was obtained by Probit method.

A further data set has as its system TNF-α production. Description: Inhibition of TNF-α production in galactosamine- and LPS-stimulation. Conditions: Mus musculus; C3H/HeN mice, oral, 1 hour before galactosamine/LPS i.v.; serum TNF-α by ELISA 1 hour later; read-out: Inhibition of TNF-α production ED50: mg/kg orally. The format is in vivo. As to the method: A suspension of each test compound in 0.5% CMC-Na solution was administered orally to C3H/HeN mice at a dose of 0.10 to 10 mg/kg. One hour later, the animals received intravenously galactosamine at a dose of 800 mg/kg and LPS at a dose 5 μg/kg to raise the induction of TNF-α production. One hour later after the galactosamine- and LPS-administration, amounts of TNF-α in serum samples were measured by ELISA, and ED50 was obtained. Roflumilast and SB207499 were used for the reference compounds in this assay.
For orientation: In an ELISA, binding on a coated surface is turned into a signal by an enzyme label.

In data set [2] the test system is lung eosinophil infiltration. Description: Inhibition of lung eosinophil infiltration (OVA-sensitized, BALF). In kind it is in vivo, Hartley guinea-pigs. Conditions: Cavia porcellus, guinea-pigs, oral, 1 hour before OVA inhalation, BALF eosinophils at 24 hours, read-out: Inhibition of Lung Eosinophil Infiltration ED50: mg/kg orally. As to the method:
Hartley guinea-pigs were sensitized by inhaling twice 1% ovalbumin (OVA) in a physiological saline for 10 minutes with a nebulizer (Atom Medical Corporation, Japan) at an interval of 1 week. The animals were orally given a suspension of test compounds at a dose of 0.03 to 3 mg/2 mL/kg one week after the final sensitization. One hour later, the animals were exposed to antigens by inhalation of 2% OVA in a physiological saline for 5 minutes with a nebulizer. Thirty minutes before the antigen challenge, the animals were intraperitoneally pretreated with pyrilamine at a dose of 10 mg/kg to avoid fatality due to anaphylactic shock. Bronchoalveolar lavage fluid (BALF) samples were collected 24 hours after the exposure by inhalation of antigens, and eosinophils were counted.

The test system of a further data set is Beagle dogs. Description: Emetic action on dogs. The format is in vivo. The note with it: oral, 1 mg/kg. As to the method: Beagle dogs received a suspension of each test compound in 0.5% CMC-Na solution orally at a dose of 1 mg/2 mL/kg.
In another data set the target is T1, CYP2D6 (Homo sapiens, UniProt P10635).
T1 construct: purchased BD Biosciences, NJ, USA; host or cells: CYP2D6-expressing system microsomes
T1 sequence (P10635 whole entry): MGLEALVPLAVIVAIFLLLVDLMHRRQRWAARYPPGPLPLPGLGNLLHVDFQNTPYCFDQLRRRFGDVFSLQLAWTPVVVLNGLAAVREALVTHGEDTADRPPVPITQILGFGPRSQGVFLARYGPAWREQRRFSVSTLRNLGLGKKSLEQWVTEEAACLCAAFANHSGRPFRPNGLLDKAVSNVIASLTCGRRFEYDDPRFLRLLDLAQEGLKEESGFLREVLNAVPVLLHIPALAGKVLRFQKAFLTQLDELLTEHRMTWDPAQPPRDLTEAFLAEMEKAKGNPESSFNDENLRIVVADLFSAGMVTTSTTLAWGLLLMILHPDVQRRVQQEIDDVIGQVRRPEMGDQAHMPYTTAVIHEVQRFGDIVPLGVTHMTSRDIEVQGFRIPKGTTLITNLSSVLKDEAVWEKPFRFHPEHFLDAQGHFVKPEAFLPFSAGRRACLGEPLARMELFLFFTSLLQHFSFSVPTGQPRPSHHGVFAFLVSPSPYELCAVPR
The data set can be described thus: Inhibition of drug-metabolizing enzyme CYP2D6 (CYP2D6/AMMC kit). In kind it is in vitro ADME. Conditions: CYP2D6-expressing microsomes, AMMC substrate, 37° C., 30 minutes; read-out: Inhibition of Drug-Metabolizing Enzymes (IC50; μM) CYP2D6. As to the method:
(§1) The inhibitory effect on CYP2D6 and CYP3A4 was determined using High Throughput Inhibitor Screening Kits: CYP2D6/AMMC and CYP3A4/BFC (both from BD Biosciences, NJ, USA). Briefly, each of NADPH regenerating systems, cofactors, and test compounds was dispensed into 96-well plates, followed by addition of each of fluorescent substrates, AMMC (CYP2D6) or BFC (CYP3A4). To each well were added CYP2D6-expressing system microsomes or CYP3A4-expressing system microsomes, and the plates were incubated at 37° C. for 30 minutes, and then read for fluorescent signals (CYP2D6: ex=390 nm, em=460 nm; CYP3A4: ex=409 nm, em=538 nm wherein excitation wavelength: ex and emission wavelength: em). Thus, each inhibitory efficacy on enzymes CYP2D6 and CYP3A4 was determined. Roflumilast was used for the reference compound in this assay.

The test system of data set [3] is lung neutrophil infiltration. Description: Inhibition of lung neutrophil infiltration (LPS inhalation, BALF). The format is in vivo, Hartley guinea-pigs. Conditions: Cavia porcellus, guinea-pigs, oral, 1 hour before LPS inhalation, BALF neutrophils at 24 hours, read-out: Inhibition of Lung Neutrophil Infiltration ED50: mg/kg orally. As to the method: Hartley guinea-pigs were orally received a suspension of test compounds at a dose of 0.03 to 3 mg/2 mL/kg. One hour later, the animals were received 0.1 mg/mL lipopolylsaccharide (LPS) in a physiological saline via an inhalational route with a nebulizer for 30 minutes. Twenty-four hours after the LPS inhalation, BALF samples were collected, and neutrophils were counted.

The target in the next data set is T2, CYP3A4 (Homo sapiens, UniProt P08684).
T2 construct: purchased BD Biosciences, NJ, USA; host or cells: CYP3A4-expressing system microsomes
T2 sequence (P08684 whole entry): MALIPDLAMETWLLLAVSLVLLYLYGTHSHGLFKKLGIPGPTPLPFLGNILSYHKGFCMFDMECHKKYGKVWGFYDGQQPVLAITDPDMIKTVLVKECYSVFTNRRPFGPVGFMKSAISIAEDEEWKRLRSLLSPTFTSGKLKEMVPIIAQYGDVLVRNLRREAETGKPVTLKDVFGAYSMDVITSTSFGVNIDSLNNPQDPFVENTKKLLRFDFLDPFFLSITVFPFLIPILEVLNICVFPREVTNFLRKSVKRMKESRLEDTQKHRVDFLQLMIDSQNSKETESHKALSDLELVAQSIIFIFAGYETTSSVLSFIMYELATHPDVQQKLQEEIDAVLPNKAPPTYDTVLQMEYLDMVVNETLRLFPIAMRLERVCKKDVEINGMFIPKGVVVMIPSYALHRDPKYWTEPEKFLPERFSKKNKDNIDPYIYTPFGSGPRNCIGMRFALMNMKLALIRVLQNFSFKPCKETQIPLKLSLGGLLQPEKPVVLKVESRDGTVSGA
Description: Inhibition of drug-metabolizing enzyme CYP3A4 (CYP3A4/BFC kit). In kind it is in vitro ADME. The note with it: CYP3A4-expressing microsomes, BFC substrate, 37° C., 30 minutes; read-out: Inhibition of Drug-Metabolizing Enzymes (IC50; μM) CYP3A4. As to the method: as §1

As to `COc1ccc([C@]2(C#N)CC[C@@H](C(=O)O)CC2)cc1OC1CCCC1` [SB207499, cis-4-cyano-4-[3-(cyclopentyloxy)-4-methoxyphenyl]cyclohexane-1-carboxylic acid, reference compound], the figures for the ED50 (in data set [1]; in the data set on TNF-α production) were above 20 mg/kg and 3.3 mg/kg, respectively.
With `O=C(Nc1c(Cl)cncc1Cl)c1ccc(OC(F)F)c(OCC2CC2)c1` [Roflumilast, 3-(cyclopropylmethoxy)-N-(3,5-dichloro-4-pyridyl)-4-(difluoromethoxy)benzamide, reference compound], the ED50 is 0.36 mg/kg in data set [2], 0.66 mg/kg in data set [1], 0.98 mg/kg in data set [3] and 0.26 mg/kg in the data set on TNF-α production. Further, the Occurrence of emesis in the data set with Beagle dogs is 2 animals among 3 were afflicted with emetic reactions. The IC50 is 9.1 µM at CYP2D6 and 0.98 µM at CYP3A4.

The term IC50 denotes the midpoint of a concentration-inhibition curve.
